According to PubChem BioAssay (NCI):
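These data come from cells grown in 96-well plates and exposed to compound for 48 hours at five concentrations. GI50 marks 50% less growth. Definition used: TGI = concentration required for complete inhibition of growth.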

What was measured:
Experiment in all cases: NCI tumour cell line growth inhibition, 48 h
[1] = test system: SNB-19 CNS
[2] = test system: OVCAR-5 ovarian
[3] = test system: TK-10 renal
[4] = test system: HS 578T breast
[5] = test system: NCI-H226 lung
[6] = test system: CAKI-1 renal
[7] = test system: SN12C renal
[8] = test system: RXF 393 renal
[9] = test system: OVCAR-3 ovarian
[10] = test system: HCT-116 colon
[11] = test system: COLO 205 colon
[12] = test system: MALME-3M melanoma
[13] = test system: MOLT-4 leukemia
[14] = test system: HOP-92 NSCLC
[15] = test system: 786-0 renal
[16] = test system: SK-MEL-5 melanoma
[17] = test system: U251 CNS
[18] = test system: NCI-H23 lung
[19] = test system: MDA-MB-231 breast
[20] = test system: LOX IMVI melanoma
[21] = test system: SF-295 CNS
[22] = test system: K-562 leukemia
[23] = test system: NCI-H460 lung
[24] = test system: SNB-75 CNS
[25] = test system: KM12 colon
[26] = test system: NCI/ADR-RES ovarian
[27] = test system: HCC-2998 colon
[28] = test system: OVCAR-8 ovarian
[29] = test system: SK-MEL-2 melanoma
[30] = test system: SR leukemia
[31] = test system: BT-549 breast
[32] = test system: UACC-257 melanoma
[33] = test system: RPMI-8226 leukemia
[34] = test system: NCI-H522 lung
[35] = test system: PC-3 prostate
[36] = test system: UO-31 renal
[37] = test system: SW-620 colon
[38] = test system: A498 renal
[39] = test system: IGROV1 ovarian
[40] = test system: UACC-62 melanoma
[41] = test system: HOP-62 NSCLC
[42] = test system: MCF7 breast
[43] = test system: HL-60(TB) leukemia
[44] = test system: OVCAR-4 ovarian
[45] = test system: HCT-15 colon
[46] = test system: ACHN renal
[47] = test system: A549 NSCLC
[48] = test system: EKVX NSCLC
[49] = test system: CCRF-CEM leukemia
[50] = test system: SF-268 CNS
[51] = test system: T-47D breast
[52] = test system: SF-539 CNS
[53] = test system: HT29 colon
[54] = test system: SK-OV-3 ovarian

Question: How did the GI50 [1] turn out when `COc1cc2ncn(-c3cc(O[C@H](C)c4ccccc4Cl)c(C(N)=O)s3)c2cc1OC` was run?
Answer: 22.5 nM

Question: What about the TGI [1] of the same molecule?
Answer: > 25 µM

Question: And the GI50 [2]?
Answer: 13.9 nM

Question: And the TGI [2]?
Answer: > 23.8 µM

Question: What about the GI50 [3] of the same molecule?
Answer: 414 nM

Question: What about the TGI [3] of the same molecule?
Answer: 4.45 µM

Question: And the GI50 [4]?
Answer: 65.2 nM

Question: What about the TGI [4] of the same molecule?
Answer: 804 nM

Question: What about the GI50 [5] of the same molecule?
Answer: 228 nM

Question: And the TGI [5]?
Answer: 6.99 µM

Question: What about the GI50 [6] of the same molecule?
Answer: 99.9 nM

Question: And the TGI [6]?
Answer: 20.8 µM

Question: What about the GI50 [7] of the same molecule?
Answer: 69.2 nM

Question: What about the TGI [7] of the same molecule?
Answer: > 21.5 µM

Question: And the GI50 [8]?
Answer: 9.47 nM

Question: And the TGI [8]?
Answer: 3.53 µM

Question: And the GI50 [9]?
Answer: 6.64 nM

Question: And the TGI [9]?
Answer: 2150 nM

Question: What about the GI50 [10] of the same molecule?
Answer: 10.2 nM

Question: And the TGI [10]?
Answer: 6.44 µM

Question: What about the GI50 [11] of the same molecule?
Answer: 5.44 nM

Question: What about the TGI [11] of the same molecule?
Answer: 4.58 µM

Question: And the GI50 [12]?
Answer: 1710 nM

Question: And the TGI [12]?
Answer: 12.3 µM

Question: And the GI50 [13]?
Answer: 9.79 nM

Question: And the TGI [13]?
Answer: 3.76 µM

Question: What about the GI50 [14] of the same molecule?
Answer: 489 nM

Question: What about the TGI [14] of the same molecule?
Answer: 7.47 µM

Question: What about the GI50 [15] of the same molecule?
Answer: 41.2 nM

Question: What about the TGI [15] of the same molecule?
Answer: 3.11 µM

Question: And the GI50 [16]?
Answer: 9.12 nM

Question: What about the TGI [16] of the same molecule?
Answer: 1080 nM

Question: And the GI50 [17]?
Answer: 16.1 nM

Question: What about the TGI [17] of the same molecule?
Answer: > 25 µM

Question: What about the GI50 [18] of the same molecule?
Answer: 10 nM

Question: What about the TGI [18] of the same molecule?
Answer: 4.39 µM

Question: And the GI50 [19]?
Answer: 21 nM

Question: And the TGI [19]?
Answer: > 25 µM

Question: And the GI50 [20]?
Answer: 10.5 nM

Question: And the TGI [20]?
Answer: 4.37 µM

Question: And the GI50 [21]?
Answer: 12.7 nM

Question: What about the TGI [21] of the same molecule?
Answer: > 25 µM

Question: And the GI50 [22]?
Answer: 8.74 nM

Question: And the TGI [22]?
Answer: > 25 µM

Question: And the GI50 [23]?
Answer: 9.55 nM

Question: And the TGI [23]?
Answer: 1240 nM

Question: And the GI50 [24]?
Answer: 23.8 nM

Question: And the TGI [24]?
Answer: 3.59 µM

Question: What about the GI50 [25] of the same molecule?
Answer: 7.28 nM

Question: What about the TGI [25] of the same molecule?
Answer: 3.86 µM

Question: And the GI50 [26]?
Answer: 8.12 nM

Question: And the TGI [26]?
Answer: 8.72 µM

Question: What about the GI50 [27] of the same molecule?
Answer: 14.8 nM

Question: What about the TGI [27] of the same molecule?
Answer: 6.18 µM

Question: What about the GI50 [28] of the same molecule?
Answer: 11.4 nM

Question: And the TGI [28]?
Answer: 11.8 µM

Question: And the GI50 [29]?
Answer: 6.79 nM

Question: What about the TGI [29] of the same molecule?
Answer: 5.02 µM

Question: What about the GI50 [30] of the same molecule?
Answer: 7.92 nM

Question: What about the TGI [30] of the same molecule?
Answer: > 6.4 µM

Question: And the GI50 [31]?
Answer: 88.8 nM

Question: And the TGI [31]?
Answer: 4.44 µM

Question: What about the GI50 [32] of the same molecule?
Answer: 2930 nM

Question: And the TGI [32]?
Answer: 15.4 µM

Question: What about the GI50 [33] of the same molecule?
Answer: 10.2 nM

Question: What about the TGI [33] of the same molecule?
Answer: 3.99 µM

Question: What about the GI50 [34] of the same molecule?
Answer: 6.56 nM

Question: What about the TGI [34] of the same molecule?
Answer: 2840 nM

Question: And the GI50 [35]?
Answer: 14.1 nM

Question: And the TGI [35]?
Answer: > 25 µM

Question: And the GI50 [36]?
Answer: 482 nM

Question: What about the TGI [36] of the same molecule?
Answer: 12.1 µM

Question: And the GI50 [37]?
Answer: 5.5 nM

Question: And the TGI [37]?
Answer: 5.57 µM

Question: And the GI50 [38]?
Answer: 12.1 nM

Question: What about the TGI [38] of the same molecule?
Answer: 194 nM

Question: And the GI50 [39]?
Answer: 19.7 nM

Question: What about the TGI [39] of the same molecule?
Answer: 12.9 µM

Question: What about the GI50 [40] of the same molecule?
Answer: 154 nM

Question: And the TGI [40]?
Answer: 7.43 µM

Question: What about the GI50 [41] of the same molecule?
Answer: 15.8 nM

Question: And the TGI [41]?
Answer: > 25 µM

Question: What about the GI50 [42] of the same molecule?
Answer: 4.31 nM

Question: And the TGI [42]?
Answer: 5.6 µM

Question: And the GI50 [43]?
Answer: 6.81 nM

Question: And the TGI [43]?
Answer: 3.89 µM

Question: And the GI50 [44]?
Answer: 3.67 µM

Question: What about the TGI [44] of the same molecule?
Answer: > 25 µM

Question: And the GI50 [45]?
Answer: 10.7 nM

Question: And the TGI [45]?
Answer: > 25 µM

Question: What about the GI50 [46] of the same molecule?
Answer: 1040 nM

Question: And the TGI [46]?
Answer: > 25 µM

Question: And the GI50 [47]?
Answer: 14 nM

Question: And the TGI [47]?
Answer: > 14.4 µM

Question: And the GI50 [48]?
Answer: 87.2 nM

Question: And the TGI [48]?
Answer: > 25 µM

Question: What about the GI50 [49] of the same molecule?
Answer: 2.5 nM

Question: What about the TGI [49] of the same molecule?
Answer: 13.1 µM

Question: And the GI50 [50]?
Answer: 16 nM

Question: What about the TGI [50] of the same molecule?
Answer: 20.1 µM

Question: And the GI50 [51]?
Answer: 146 nM

Question: And the TGI [51]?
Answer: 7.76 µM

Question: What about the GI50 [52] of the same molecule?
Answer: 10.9 nM

Question: And the TGI [52]?
Answer: 2740 nM

Question: What about the GI50 [53] of the same molecule?
Answer: 4.32 nM

Question: What about the TGI [53] of the same molecule?
Answer: 4.26 µM

Question: What about the GI50 [54] of the same molecule?
Answer: 9.7 nM

Question: And the TGI [54]?
Answer: 12.7 µM
